Measured values taken from patent publication US20150225377A1, “VEGFR3 INHIBITORS” (CANCER THERAPEUTICS CRC PTY LIMITED, priority 2012, published 2015).

Molecular target: T1, VEGFR2 (Homo sapiens, UniProt P35968)
T1 construct: host or cells: HUVEC
Assay: VEGFR2 Phospho ELISA assay in HUVEC, VEGF stimulated
Assay type: cell-based
Conditions: 1 hour compound, 50 ng/mL VEGF 10 minutes
Procedure: Adult human umbilical vein endothelial cells (HUVEC) (Cat#CC-2519, Lonza) were seeded into clear-bottom, TC treated 12 well plates (Cat #665180, Greiner Bio-One) in EGM-2 (Cat#CC-3162, Lonza) at 180,000 cells/well (volume 1 mL), and the plates incubated at 37° C. and 5% CO2 for 6 hours. The media was replaced with EBM-2 (Cat #CC-3156, Lonza)+0.1% BSA (Cat#A8412, Sigma) and cells incubated for a further period (overnight at 37° C. and 5% CO2).
96 well Maxisorp immuno plates (Cat #439454, Nunc) were coated with 100 μL of Total VEGFR^2 capture antibody (Part #841434, Human Total VEGFR^2/FLT4 ELISA Kit, Cat #DYC1780, R&D Systems), or Phospho VEGFR^2 Capture antibody (Part #841419, Human Phospho VEGFR^2/FLT4 ELISA Kit, Cat#DYC1766, R&D Systems). The plates were covered and incubated at room temperature overnight.
The coating antibody was flicked out and the plates washed three times with Wash Buffer (Phosphate buffered saline (137 mM NaCl, […], […], […], pH 7.2-7.4), 0.05% Tween 20). 300 μL of Blocking buffer (1% v/v BSA (Cat#A8412, Sigma) in PBS) was then added to wells and plate incubated for 2 hours at room temperature. Blocking solution is flicked out and plates washed three times and tapped dry.
Compound dilution series were prepared in EBM-2 (Cat #CC-3156, Lonza)+0.1% BSA (Cat#A8412, Sigma) with constant 0.1% DMSO concentration. 427.5 μL of sample or vehicle control was added to the cell monolayers. Cells are treated for 1 hour at 37° C. and 5% CO2. 50 ng/mL Recombinant human VEGF (Cat #293-VC, R & D Systems) added to wells and plates incubated for an additional 10 minutes at 37° C. and 5% CO2.
The media and compounds were removed and the cell monolayer washed once in Dulbecco's Phosphate Buffered Saline (Cat #21600-044, Invitrogen). 130 μL of Lysis buffer added to wells and cell lysate harvested and transferred to tubes and stored on ice. Complete lysis buffer was prepared by adding 10 μL Protease Inhibitor Cocktail (Cat #P8340, Sigma-Aldrich), 10 μL PMSF (Phenylmethanesulfonyl fluoride, Cat #P7626, Sigma-Aldrich, prepared as 500 mM DMSO stock) per 1 mL of Phosphosafe™ Extraction Reagent (Cat #71296, Merck).
The harvested samples were then diluted 1:2 in IC Diluent #12 (1% NP-40, […] (pH 8.0), 137 mM NaCl, 10% glycerol, 2 mM EDTA, 1 mM activated sodium orthovanadate) and 100 μL transferred to the Total and Phospho VEGFR^2 coated, blocked and washed 96 well plates and incubated for 2 hours at room temperature. The plates were then washed three times in wash buffer as described above and tapped dry.
For detection of Total VEGFR^2100 μL of Detection antibody (Total VEGFR^2 Detection Antibody Part#841435 in Total VEGFR^2 kit) diluted in IC Diluent #14 (20 mM Tris, […], 0.05% Tween20, 0.1% BSA) was added to wells and the plate incubated for 2 hours at room temperature. The plate was then washed three times in wash buffer and tapped dry. 100 μL of streptavidin-HPR diluted in IC diluent #14 Streptavidin-HRP, Part #890803 in Total VEGFR^2 kit) was added to wells and incubated at room temperature for 20 minutes followed by washing as described above. 100 μL Substrate solution (3,3′,5,5′-Tetramethylbenzidine (TMB) Liquid Substrate System for ELISA, Cat #T0440, Sigma-Aldrich) was added and the plate incubated for 20 minutes in the dark at room temperature followed by the addition of 50 μL stop solution (2 M H2SO4).
Total VEGFR^2 levels were quantified using a Multiskan Ascent plate reader and Ascent software fitted with 450 nm filter.
For detection of Phospho VEGFR^2, 100 μL of Detection antibody (Anti-Phospho-Tyrosine-HRP Detection Antibody, Part #841403 in Phospho VEGFR^2 kit) was diluted in IC Diluent 14 (20 mM Tris, […], 0.05% Tween20, 0.1% BSA), was added to the wells and the plate incubated for 2 hours at room temperature. The plate was then washed three times in wash buffer as described above and tapped dry. […]

T1 sequence (P35968 20-1356): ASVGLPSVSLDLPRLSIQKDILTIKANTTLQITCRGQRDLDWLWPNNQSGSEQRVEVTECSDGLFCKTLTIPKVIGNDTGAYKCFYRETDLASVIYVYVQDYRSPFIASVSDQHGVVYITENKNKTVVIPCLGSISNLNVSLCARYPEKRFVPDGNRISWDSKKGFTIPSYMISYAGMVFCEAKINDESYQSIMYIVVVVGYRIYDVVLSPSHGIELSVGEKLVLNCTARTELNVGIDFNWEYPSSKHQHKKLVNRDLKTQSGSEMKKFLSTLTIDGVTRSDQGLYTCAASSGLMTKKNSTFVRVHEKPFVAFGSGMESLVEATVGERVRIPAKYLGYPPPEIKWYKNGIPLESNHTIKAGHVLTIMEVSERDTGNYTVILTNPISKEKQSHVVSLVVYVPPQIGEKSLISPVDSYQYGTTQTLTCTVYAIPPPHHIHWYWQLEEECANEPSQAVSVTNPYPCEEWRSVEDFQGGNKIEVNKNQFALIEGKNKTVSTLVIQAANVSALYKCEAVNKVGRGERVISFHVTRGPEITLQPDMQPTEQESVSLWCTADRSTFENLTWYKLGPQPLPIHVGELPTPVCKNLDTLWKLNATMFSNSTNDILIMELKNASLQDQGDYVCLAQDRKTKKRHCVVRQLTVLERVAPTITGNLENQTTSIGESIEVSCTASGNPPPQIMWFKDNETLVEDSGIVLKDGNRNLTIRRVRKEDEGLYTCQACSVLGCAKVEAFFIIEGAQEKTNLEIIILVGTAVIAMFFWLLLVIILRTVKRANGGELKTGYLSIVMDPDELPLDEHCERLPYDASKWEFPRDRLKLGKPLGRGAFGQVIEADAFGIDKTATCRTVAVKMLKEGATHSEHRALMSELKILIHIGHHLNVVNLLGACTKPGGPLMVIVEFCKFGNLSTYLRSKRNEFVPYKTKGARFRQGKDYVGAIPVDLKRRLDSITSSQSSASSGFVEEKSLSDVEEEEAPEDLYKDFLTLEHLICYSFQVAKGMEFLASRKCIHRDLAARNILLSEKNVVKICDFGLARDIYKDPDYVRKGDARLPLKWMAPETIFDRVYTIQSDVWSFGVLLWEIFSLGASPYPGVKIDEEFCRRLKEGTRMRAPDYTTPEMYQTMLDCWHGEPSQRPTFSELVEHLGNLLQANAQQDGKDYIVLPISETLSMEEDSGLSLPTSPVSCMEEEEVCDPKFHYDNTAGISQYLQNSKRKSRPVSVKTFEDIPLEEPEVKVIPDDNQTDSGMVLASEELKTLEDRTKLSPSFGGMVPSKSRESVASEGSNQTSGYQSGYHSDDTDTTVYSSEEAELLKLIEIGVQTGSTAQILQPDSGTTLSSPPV

Row | SMILES | IC50 [nM]
1 | Cc1cnc(Nc2ccc(N3CCNCC3)cc2)nc1CCc1ccccc1CC(N)=O [Compound 2, 2-(2-(2-(5-methyl-2-((4-(piperazin-1-yl)phenyl)amino)pyrimidin-4-yl)ethyl)phenyl)acetamide] | 4400
2 | Cc1cnc(Nc2ccc(C3CCNCC3)nc2)nc1CCc1ccccc1CC(N)=O [Compound 4, 2-(2-(2-(5-methyl-2-((6-(piperidin-4-yl)pyridin-3-yl)amino)pyrimidin-4-yl)ethyl)phenyl)acetamide] | > 10000
3 | CC(N)c1ccc(Nc2ncc(C(F)(F)F)c(CCc3ccccc3CC(N)=O)n2)cc1 (stereo not drawn) [Compound 18, 2-(2-(2-(2-(4-(1-aminoethyl)phenylamino)-5-(trifluoromethyl)pyrimidin-4-yl)ethyl)phenyl)acetamide] | 2550
4 | Cc1cnc(Nc2cccnc2)nc1CCc1ccccc1CC(N)=O [Compound 24, 2-(2-(2-(5-methyl-2-(pyridin-3-ylamino)pyrimidin-4-yl)ethyl)phenyl)acetamide] | > 10000
5 | Cc1cnc(Nc2ccc(OC3CCNCC3)cc2)nc1CCc1ccccc1CC(N)=O [Compound 26, 2-(2-(2-(5-methyl-2-((4-(piperidin-4-yloxy)phenyl)amino)pyrimidin-4-yl)ethyl)phenyl)acetamide] | 4070
6 | Cc1cnc(Nc2cnn(C)c2)nc1CCc1ccccc1CC(N)=O [Compound 28, 2-(2-(2-(5-methyl-2-((1-methyl-^1H-pyrazol-4-yl)amino)pyrimidin-4-yl)ethyl)phenyl)acetamide] | 6840
7 | Cc1cnc(Nc2ccc(C3(N)COC3)cc2)nc1CCc1ccccc1CC(N)=O [Compound 31, 2-(2-(2-(2-(4-(3-aminooxetan-3-yl)phenylamino)-5-methylpyrimidin-4-yl)ethyl)phenyl)acetamide] | 5100
8 | Cc1cnc(Nc2cnn(C3CCNCC3)c2)nc1CCc1ccccc1CC(N)=O [Compound 33, 2-(2-(2-(5-Methyl-2-((1-(piperidin-4-yl)-^1H-pyrazol-4-yl)amino)pyrimidin-4-yl)ethyl)phenyl)acetamide] | > 10000
9 | CC(N)c1ccc(Nc2ncc(Cl)c(CCc3ccccc3CC(N)=O)n2)cc1 (stereo not drawn) [Compound 37, 2-(2-(2-(2-(4-(1-aminoethyl)phenylamino)-5-chloropyrimidin-4-yl)ethyl)phenyl)acetamide] | 200
